From paper doi:10.64898/2025.12.21.695763v2 (biorxiv, 2026)

Each compound was assayed against T1, Mth α-subunit (NrdE) of Class Ib ribonucleotide reductase (Mycolicibacterium thermoresistibile, UniProt G7CEK2) (assay: isothermal titration calorimetry).
T1 sequence (G7CEK2 1-693): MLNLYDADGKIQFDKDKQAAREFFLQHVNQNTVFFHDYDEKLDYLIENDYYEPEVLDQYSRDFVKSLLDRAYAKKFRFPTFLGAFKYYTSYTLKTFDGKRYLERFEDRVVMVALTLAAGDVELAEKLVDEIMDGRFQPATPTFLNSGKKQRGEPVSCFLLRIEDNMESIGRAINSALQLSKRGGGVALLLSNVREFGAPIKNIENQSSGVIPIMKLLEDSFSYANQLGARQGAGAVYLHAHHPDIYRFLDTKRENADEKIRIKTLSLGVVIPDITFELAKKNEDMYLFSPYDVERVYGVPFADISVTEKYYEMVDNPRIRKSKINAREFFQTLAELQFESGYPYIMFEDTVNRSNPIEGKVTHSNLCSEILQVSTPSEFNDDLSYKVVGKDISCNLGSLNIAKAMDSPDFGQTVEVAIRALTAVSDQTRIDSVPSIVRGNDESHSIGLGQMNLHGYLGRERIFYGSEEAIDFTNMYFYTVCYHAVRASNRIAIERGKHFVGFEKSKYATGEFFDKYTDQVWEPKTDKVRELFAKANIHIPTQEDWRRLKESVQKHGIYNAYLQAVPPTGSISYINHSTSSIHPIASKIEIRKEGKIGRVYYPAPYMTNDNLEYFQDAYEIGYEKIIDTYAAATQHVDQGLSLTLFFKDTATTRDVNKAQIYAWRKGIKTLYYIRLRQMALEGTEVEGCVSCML
Assay type: binding

Structure (SMILES) | Kd
Nc1nc2c(ncn2[C@H]2C[C@H](O)[C@@H](COP(=O)(O)OP(=O)(O)OP(=O)(O)O)O2)c(=O)[nH]1 [dGTP] | 4.6 µM
Cc1cn([C@H]2C[C@H](O)[C@@H](COP(=O)(O)OP(=O)(O)OP(=O)(O)O)O2)c(=O)[nH]c1=O [dTTP] | 3.3 µM
Nc1ccn([C@H]2C[C@H](O)[C@@H](COP(=O)(O)OP(=O)(O)OP(=O)(O)O)O2)c(=O)n1 [dCTP] | 6.6 µM

These reach a lower Kd. Values come first.

Kd | Structure (SMILES)
0.64 µM | Cc1cn([C@@H]2O[C@H](COP(=O)(O)OP(=O)(O)OP(=O)(O)O)[C@@H](O)[C@H]2O)c(=O)[nH]c1=O [TTP]
1.1 µM | Nc1ncnc2c1ncn2[C@H]1C[C@H](O)[C@@H](COP(=O)(O)OP(=O)(O)OP(=O)(O)O)O1 [dATP]
